We go through nine compounds from PubChem BioAssay (NCI).

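Tested at 5 concentrations; 48 h exposure; 96-well plates; endpoints linearly interpolated, else capped at highest concentration. Definition used: TGI = concentration required for complete inhibition of growth.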

Common to all, as to assay: growth of human tumour cells (NCI), 48 h
In experiment [1] the test system is SF-295 CNS.
Experiment [2] has as its system HS 578T breast.
Experiment [3] has as its system SNB-75 CNS.
Experiment [4] deals with RPMI-8226 leukemia.
Experiment [5] deals with SR leukemia.
In experiment [6] the test system is NCI-H460 lung.
For experiment [7], the system named is U251 CNS.
Experiment [8] concerns RXF 393 renal.
For experiment [9], the system named is HCT-116 colon.
Experiment [10] has as its system COLO 205 colon.
Experiment [11] deals with A498 renal.
Experiment [12] has as its system HT29 colon.
Experiment [13] deals with MDA-MB-435.
In experiment [14] the test system is SK-MEL-5 melanoma.
Experiment [15] relates to UO-31 renal.
In experiment [16] the test system is CCRF-CEM leukemia.
For experiment [17], the system named is NCI-H522 lung.
Experiment [18] has as its system PC-3 prostate.

As for `O=C(CSCC(=O)N/N=C\c1ccc(O)c(O)c1O)N/N=C\c1ccc(O)c(O)c1O`, the TGI in experiment [1] was determined as 4.94 µM; in experiment [2] it was 80.8 µM; in experiment [3], 21.2 µM; in experiment [4], 6.86 µM; in experiment [5] it was 8.18 µM; in [6], 56.3 µM. Moreover, the TGI was 19.2 µM in experiment [7]; more than 100 µM in [8]; 13.4 µM in [9]; more than 100 µM in experiment [10]; more than 100 µM in experiment [11]; 54.9 µM in [12]. The TGI was 3.59 µM in experiment [13]; 36.3 µM in [14]; 34.7 µM in experiment [15]; 4.75 µM in experiment [16]; 44.4 µM in [17].

For `O=[N+]([O-])c1cc(N=Nc2c(O)ccc3cc(S(=O)(=O)O)ccc23)c(O)c([N+](=O)[O-])c1`, the TGI in experiment [1], in experiment [2], in experiment [3], in experiment [4], in experiment [7] and in [8] was more than 100 µM throughout. The TGI in [18], in experiment [9], in experiment [10], in experiment [12], in experiment [13] and in [14] was more than 100 µM in each case. For the same compound, the TGI in [15], in experiment [16] and in [17] was more than 100 µM each time.

For `CN1C(=O)C(C(=O)Nc2ccccn2)C2C[C@@]1(C)Oc1ccccc12` (stereo partly drawn), the TGI in [1], in experiment [2], in [3], in [4], in experiment [6] and in [7] was more than 100 µM throughout. The TGI in experiment [8], in experiment [18], in experiment [9], in experiment [10], in experiment [11] and in experiment [12] was more than 100 µM in each case. The TGI in [13], in [14], in experiment [15], in experiment [16] and in experiment [17] was more than 100 µM throughout.

Consider `CO[C@@]12C[C@@H](C)[C@]34O[C@H]3C[C@]3(C)O[C@]43CC1=C(C)C(=O)O2`, for which the TGI in experiment [1], in experiment [2], in experiment [4], in [6], in experiment [7] and in experiment [18] was more than 100 µM in each case. The TGI in experiment [9], in experiment [10], in experiment [11], in experiment [12], in experiment [13] and in [14] was more than 100 µM in each case. Besides, the TGI in experiment [15] and in experiment [17] was more than 100 µM each time.

Take `CN(C)C(=S)C(Cl)(c1ccccc1)c1ccccc1`: the TGI in experiment [1], in experiment [2], in [3], in [6], in [7] and in experiment [18] was more than 100 µM each time. In addition, the TGI in experiment [9] is more than 100 µM; in experiment [10], more than 100 µM; in experiment [11], more than 100 µM; in experiment [12] it was 77.3 µM; in [13], more than 100 µM; in [14], more than 100 µM. The TGI in [15], in [16] and in [17] was more than 100 µM each time.

On to `COc1ccc(-c2csc(Cc3nc4c(Br)cc(Br)cc4c(=O)n3-c3ccc(OC)cc3)n2)cc1`, for which the TGI in experiment [1], in [2], in experiment [3], in experiment [6], in experiment [7] and in experiment [8] was more than 100 µM throughout. Also, the TGI in experiment [18], in [9], in experiment [10], in [11], in experiment [12] and in experiment [13] was more than 100 µM in each case. In addition, the TGI in experiment [14] is 89.3 µM; in experiment [15] it was more than 100 µM; in experiment [16], more than 100 µM.

For `CC(=O)Oc1c2ccsc2c(OC(C)=O)c2ccsc12`, the TGI in experiment [1] was 2.41 µM; in experiment [2] it was 0.951 µM; in experiment [3] it was 0.753 µM; in experiment [4], more than 28 µM; in [5], 0.88 µM; in experiment [6] it was 3.57 µM. The TGI in [7] was found to be 2.45 µM; in experiment [8] it was 0.501 µM; in experiment [9] it was 2.21 µM; in experiment [10], 3.38 µM; in experiment [11], 3.29 µM; in [12] it was 4.45 µM. Further, the TGI was 0.377 µM in experiment [13]; 0.31 µM in [14]; 2.57 µM in experiment [15]; more than 21.4 µM in experiment [16]; 1.15 µM in experiment [17].

Consider `C[P+](c1ccccc1)(c1ccc(Cl)cc1)c1ccc(Cl)cc1`, for which the TGI was 78.2 µM in [2]; 46 µM in [3]; 2.41 µM in [4]; more than 100 µM in experiment [6]; 39.3 µM in experiment [7]; more than 100 µM in experiment [8]. The TGI is 70.6 µM in experiment [18]; 44.9 µM in experiment [9]; 22 µM in experiment [10]; 98.3 µM in [11]; 24.1 µM in [12]; 18.7 µM in experiment [13]. The TGI in experiment [14] is 14.4 µM; in experiment [15] it was more than 100 µM; in experiment [17] it was 33.1 µM.

In the case of `N#CC(C#N)=c1c2ccccc2c(=C(C#N)C#N)c2ccccc12`, the TGI in experiment [2] is 47.7 µM; in experiment [3] it was 39.8 µM; in experiment [4] it was more than 100 µM; in [6], 63.6 µM; in experiment [7], 55.4 µM; in experiment [18], 30.4 µM. The TGI in [9] stood at 34.4 µM; in experiment [10], 37.5 µM; in experiment [11] it was 54.9 µM; in [12], 39.5 µM; in experiment [13], 40.1 µM; in experiment [14] it was 31 µM. Also, the TGI in experiment [16] was 50.9 µM.
